The record followed here is US11339161B2, “Triazolo pyridines as modulators of gamma-secretase” (Boehringer Ingelheim International GmbH, priority 2017, dated 2022).

Like-named read-outs stand apart in the source and are kept apart here.

In one assay the target is KDR (VEGFR2) (Homo sapiens, UniProt P35968). Put plainly: Z'-LYTE SelectScreen biochemical kinase assay KDR (VEGFR2).
The test system of another assay is panel of 15 kinases. Briefly: Z'-LYTE SelectScreen kinase panel: number of kinases with <40% inhibition. The assay is classed as biochemical. The settings on record: of 15 kinases tested; 10 μmolar compound; ATP at Km app.
The next assay concerns the target FGFR2 (Homo sapiens, UniProt P21802). Put plainly: Z'-LYTE SelectScreen biochemical kinase assay FGFR2. In short, it runs like this: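 FRET peptide cleavage (Z′-LYTE) read-out: 10 μL reaction of 0.19-1.99 ng FGFR2 with 2 μM Tyr 04 peptide in HEPES pH 7.5, MgCl2, 2 mM MnCl2, DTT, 1% DMSO; ATP at apparent Km. 60 min at room temperature, then 60 min development. Coumarin/fluorescein emission ratio; 10-point 3-fold titrations fitted sigmoidally.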

Another assay deals with FLT4 (VEGFR3) (Homo sapiens, UniProt P35916). Put plainly: Z'-LYTE SelectScreen biochemical kinase assay FLT4 (VEGFR3).
Another assay has as its target LYN B (Homo sapiens, UniProt P07948). Put plainly: Z'-LYTE SelectScreen biochemical kinase assay LYN B. In short, it runs like this:
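FRET-peptide Z′-LYTE format: 0.85–14.8 ng LYN B with 2 µM Tyr 02 peptide and ATP at apparent Km, in HEPES pH 7.5 buffer with 10 mM MgCl2, 1% DMSO final. Kinase reaction 60 min at room temperature, then 60 min protease development; coumarin/fluorescein emission ratio, 10-point 3-fold titrations fitted sigmoidally.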

The mark [1] stands for this setting: 10 μmolar compound concentration, ATP at Km app, read-out: KDR (VEGFR2) inhibition.
[2] abbreviates: read-out: % Inhibition mean KDR (VEGFR2).
The mark [3] stands for this setting: 10 μmolar compound concentration, ATP at Km app, read-out: FGFR2 inhibition.
[4] abbreviates: read-out: % Inhibition mean FGFR2.
Setting [5] is: 10 μmolar compound concentration, ATP at Km app, read-out: FLT4 (VEGFR3) inhibition.
Setting [6] is: read-out: % Inhibition mean FLT4 (VEGFR3).
Setting [7] is: 10 μmolar compound concentration, ATP at Km app, read-out: LYN B inhibition.
Setting [8] is: read-out: % Inhibition mean LYN B.

FLT4 (VEGFR3), sequence (P35916 25-1363): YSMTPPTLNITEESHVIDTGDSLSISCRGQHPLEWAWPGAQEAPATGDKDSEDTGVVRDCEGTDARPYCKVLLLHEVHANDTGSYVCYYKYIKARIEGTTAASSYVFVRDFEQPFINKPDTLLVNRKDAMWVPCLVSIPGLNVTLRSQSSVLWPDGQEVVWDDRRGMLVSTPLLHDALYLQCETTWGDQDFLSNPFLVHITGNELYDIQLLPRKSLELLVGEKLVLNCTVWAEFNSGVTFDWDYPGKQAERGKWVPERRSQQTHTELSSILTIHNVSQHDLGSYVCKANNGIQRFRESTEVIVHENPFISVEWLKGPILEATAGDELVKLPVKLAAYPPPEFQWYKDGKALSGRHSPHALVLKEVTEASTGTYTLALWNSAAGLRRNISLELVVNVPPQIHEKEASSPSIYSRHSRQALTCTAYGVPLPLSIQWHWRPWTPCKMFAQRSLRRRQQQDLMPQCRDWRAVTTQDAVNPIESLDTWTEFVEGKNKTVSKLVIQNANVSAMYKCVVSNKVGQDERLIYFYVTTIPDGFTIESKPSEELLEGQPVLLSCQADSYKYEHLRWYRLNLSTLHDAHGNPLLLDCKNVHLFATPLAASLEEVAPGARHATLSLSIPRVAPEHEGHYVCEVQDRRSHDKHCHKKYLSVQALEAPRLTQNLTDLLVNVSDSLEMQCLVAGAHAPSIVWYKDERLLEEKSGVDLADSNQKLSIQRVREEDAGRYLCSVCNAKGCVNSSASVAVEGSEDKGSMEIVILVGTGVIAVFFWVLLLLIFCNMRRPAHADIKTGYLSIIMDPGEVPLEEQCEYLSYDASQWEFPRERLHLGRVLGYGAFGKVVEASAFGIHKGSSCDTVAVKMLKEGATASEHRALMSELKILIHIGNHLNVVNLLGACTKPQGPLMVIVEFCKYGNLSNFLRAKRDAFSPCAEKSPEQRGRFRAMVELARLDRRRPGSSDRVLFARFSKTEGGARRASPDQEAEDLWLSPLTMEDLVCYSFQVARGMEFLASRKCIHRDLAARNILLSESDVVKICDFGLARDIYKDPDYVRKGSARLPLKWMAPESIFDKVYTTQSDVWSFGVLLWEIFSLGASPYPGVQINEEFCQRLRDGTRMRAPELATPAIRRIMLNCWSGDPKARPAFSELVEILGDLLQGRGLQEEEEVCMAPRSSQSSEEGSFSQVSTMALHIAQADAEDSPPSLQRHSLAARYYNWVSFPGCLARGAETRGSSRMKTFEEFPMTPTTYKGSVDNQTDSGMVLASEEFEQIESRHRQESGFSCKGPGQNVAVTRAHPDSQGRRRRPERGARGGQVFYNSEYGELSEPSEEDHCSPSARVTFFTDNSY
LYN B, sequence (P07948 1-491 isoform P07948-2): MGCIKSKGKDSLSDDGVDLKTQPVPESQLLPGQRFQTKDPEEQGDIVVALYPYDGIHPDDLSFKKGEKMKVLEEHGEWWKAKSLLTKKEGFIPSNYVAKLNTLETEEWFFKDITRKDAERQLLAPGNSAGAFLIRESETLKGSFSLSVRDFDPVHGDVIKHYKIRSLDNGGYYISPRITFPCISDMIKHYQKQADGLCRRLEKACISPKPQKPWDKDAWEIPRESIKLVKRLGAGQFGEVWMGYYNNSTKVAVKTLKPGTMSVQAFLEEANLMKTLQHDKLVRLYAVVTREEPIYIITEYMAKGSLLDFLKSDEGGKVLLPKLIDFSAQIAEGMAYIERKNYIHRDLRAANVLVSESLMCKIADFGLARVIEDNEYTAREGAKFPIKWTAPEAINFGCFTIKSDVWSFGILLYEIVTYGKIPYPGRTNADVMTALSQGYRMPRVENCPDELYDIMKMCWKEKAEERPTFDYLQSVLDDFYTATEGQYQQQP
KDR (VEGFR2), sequence (P35968 20-1356): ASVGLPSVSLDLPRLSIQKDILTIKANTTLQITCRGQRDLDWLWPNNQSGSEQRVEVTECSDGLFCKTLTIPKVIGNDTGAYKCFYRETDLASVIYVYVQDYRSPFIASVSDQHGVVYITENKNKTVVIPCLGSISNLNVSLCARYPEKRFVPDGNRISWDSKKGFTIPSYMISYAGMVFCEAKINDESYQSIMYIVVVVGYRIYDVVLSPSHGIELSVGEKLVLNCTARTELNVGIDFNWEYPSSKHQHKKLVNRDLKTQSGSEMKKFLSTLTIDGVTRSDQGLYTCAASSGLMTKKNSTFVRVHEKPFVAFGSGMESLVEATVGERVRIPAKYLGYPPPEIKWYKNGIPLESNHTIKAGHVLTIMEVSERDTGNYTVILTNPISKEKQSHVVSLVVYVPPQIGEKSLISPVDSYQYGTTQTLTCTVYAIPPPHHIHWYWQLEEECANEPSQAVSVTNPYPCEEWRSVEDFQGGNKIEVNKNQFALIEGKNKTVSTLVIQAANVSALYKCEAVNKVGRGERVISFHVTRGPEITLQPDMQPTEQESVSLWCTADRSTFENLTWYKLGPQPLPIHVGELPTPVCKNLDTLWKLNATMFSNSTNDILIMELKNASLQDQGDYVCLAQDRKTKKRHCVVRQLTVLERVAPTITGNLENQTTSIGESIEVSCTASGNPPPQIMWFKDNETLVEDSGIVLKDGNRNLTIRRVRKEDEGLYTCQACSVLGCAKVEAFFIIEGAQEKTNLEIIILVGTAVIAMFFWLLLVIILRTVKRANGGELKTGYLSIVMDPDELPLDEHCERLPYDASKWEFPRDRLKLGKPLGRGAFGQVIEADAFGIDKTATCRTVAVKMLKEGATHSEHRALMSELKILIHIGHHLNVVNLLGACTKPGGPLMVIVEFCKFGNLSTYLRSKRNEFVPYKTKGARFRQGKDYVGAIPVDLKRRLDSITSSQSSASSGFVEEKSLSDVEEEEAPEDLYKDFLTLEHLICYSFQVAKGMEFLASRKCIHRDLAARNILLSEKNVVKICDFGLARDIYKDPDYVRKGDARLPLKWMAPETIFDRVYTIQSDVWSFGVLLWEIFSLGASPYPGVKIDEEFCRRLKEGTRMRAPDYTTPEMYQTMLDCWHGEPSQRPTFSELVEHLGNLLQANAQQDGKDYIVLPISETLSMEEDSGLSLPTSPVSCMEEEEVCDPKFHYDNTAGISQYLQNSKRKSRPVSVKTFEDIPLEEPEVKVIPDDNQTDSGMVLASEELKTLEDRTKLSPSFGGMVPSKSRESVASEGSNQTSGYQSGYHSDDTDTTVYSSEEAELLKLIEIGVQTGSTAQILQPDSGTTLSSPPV
FGFR2, sequence (P21802 22-821): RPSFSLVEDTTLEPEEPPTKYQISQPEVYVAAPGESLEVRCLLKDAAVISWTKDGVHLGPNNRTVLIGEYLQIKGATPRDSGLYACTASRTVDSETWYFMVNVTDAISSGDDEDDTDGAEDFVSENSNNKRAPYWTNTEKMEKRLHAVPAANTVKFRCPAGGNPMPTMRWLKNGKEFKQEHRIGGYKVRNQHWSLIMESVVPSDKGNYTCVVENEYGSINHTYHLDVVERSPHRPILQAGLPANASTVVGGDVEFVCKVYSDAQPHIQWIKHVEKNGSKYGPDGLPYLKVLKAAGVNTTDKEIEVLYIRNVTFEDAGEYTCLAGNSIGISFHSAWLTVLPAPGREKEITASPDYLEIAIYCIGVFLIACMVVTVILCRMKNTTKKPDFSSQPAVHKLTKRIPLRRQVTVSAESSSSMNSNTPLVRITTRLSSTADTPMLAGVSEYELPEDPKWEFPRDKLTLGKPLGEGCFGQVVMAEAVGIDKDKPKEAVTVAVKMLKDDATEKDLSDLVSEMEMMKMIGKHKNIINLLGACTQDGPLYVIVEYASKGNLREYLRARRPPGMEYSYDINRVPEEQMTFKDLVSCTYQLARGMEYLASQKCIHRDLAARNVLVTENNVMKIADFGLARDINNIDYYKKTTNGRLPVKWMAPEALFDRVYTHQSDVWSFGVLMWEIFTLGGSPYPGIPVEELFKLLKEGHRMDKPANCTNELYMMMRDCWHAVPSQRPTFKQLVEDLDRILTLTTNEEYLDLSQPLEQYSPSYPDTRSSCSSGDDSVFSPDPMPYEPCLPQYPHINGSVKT

In the case of `CCn1ncc2c1CCC(Nc1nc3c(-c4cccnc4)cccn3n1)C2` (stereo not drawn) [Example 63, (1-Ethyl-4,5,6,7-tetrahydro-1H-indazol-5-yl)-(8-pyridin-3-yl-[1,2,4]triazolo[1,5-a]pyridine-2-yl)-amine], the inhibition at 10 µM at KDR (VEGFR2) (setting [1]) is less than 40%; at KDR (VEGFR2) (setting [2]), 8%; on FGFR2 (setting [3]), less than 40%; at FGFR2 (setting [4]), 16%; on FLT4 (VEGFR3) (setting [5]), less than 40%; at FLT4 (VEGFR3) (setting [6]), 32%. In addition, the inhibition at 10 µM on LYN B (setting [7]) is less than 40%; on LYN B (setting [8]), 13%. Further, the “No. of kinases with <40% inhibition” value with panel of 15 kinases is reported as 12/15.
As for `CCn1ncc2c1CCC(Nc1nc3c(-c4ccc(C)nc4)cccn3n1)C2` (stereo not drawn) [Example 67, (1-Ethyl-4,5,6,7-tetrahydro-1H-indazol-5-yl)-[8-(6-methyl-pyridin-3-yl)-[1,2,4]triazolo[1,5-a]pyridine-2-yl]-amine], the inhibition at 10 µM on KDR (VEGFR2) (setting [1]) was less than 40%; at KDR (VEGFR2) (setting [2]), 15%; on FGFR2 (setting [3]) it was less than 40%; on FGFR2 (setting [4]), 30%; at FLT4 (VEGFR3) (setting [5]), less than 40%; at FLT4 (VEGFR3) (setting [6]) it was 33%. The inhibition at 10 µM is less than 40% on LYN B (setting [7]) and 20% on LYN B (setting [8]). Moreover, in the assay on panel of 15 kinases, the “No. of kinases with <40% inhibition” value is given as 14/15.
Consider `CCn1ncc2c1CCC(Nc1nc3c(-c4cncc(OC)c4)cccn3n1)C2` (stereo not drawn) [Example 70, (1-Ethyl-4,5,6,7-tetrahydro-1H-indazol-5-yl)-[8-(5-methoxy-pyridin-3-yl)-[1,2,4]triazolo[1,5-a]pyridine-2-yl]-amine], for which the inhibition at 10 µM at KDR (VEGFR2) (setting [1]) was less than 40%; on KDR (VEGFR2) (setting [2]), 12%; at FGFR2 (setting [3]) it was less than 40%; on FGFR2 (setting [4]) it was 12%; on FLT4 (VEGFR3) (setting [5]) it was less than 40%; on FLT4 (VEGFR3) (setting [6]), 28%. The inhibition at 10 µM at LYN B (setting [7]) is less than 40%; at LYN B (setting [8]) it was 22%. The “No. of kinases with <40% inhibition” value with panel of 15 kinases is reported as 11/15.
For `CCn1ncc2c1CCC(Nc1nc3c(-c4ccc(OC)nc4)cccn3n1)C2` (stereo not drawn) [Example 71, (1-Ethyl-4,5,6,7-tetrahydro-1H-indazol-5-yl)-[8-(6-methoxy-pyridin-3-yl)-[1,2,4]triazolo[1,5-a]pyridine-2-yl]-amine], the inhibition at 10 µM was less than 40% at KDR (VEGFR2) (setting [1]); 17% on KDR (VEGFR2) (setting [2]); less than 40% at FGFR2 (setting [3]); 27% at FGFR2 (setting [4]); 40 to 80% on FLT4 (VEGFR3) (setting [5]); 62% on FLT4 (VEGFR3) (setting [6]). Moreover, the inhibition at 10 µM at LYN B (setting [7]) is less than 40%; at LYN B (setting [8]) it was 24%. Also, the “No. of kinases with <40% inhibition” value in the assay with panel of 15 kinases was 11/15.
In the case of `CCn1ncc2c1CC[C@@H](Nc1nc3c(-c4ccc(F)c(Cl)c4)cccn3n1)C2` [Example R-61, (R)-[8-(3-Chloro-4-fluoro-phenyl)-[1,2,4]triazolo[1,5-a]pyridine-2-yl]-(1-ethyl-4,5,6,7-tetrahydro-1H-indazol-5-yl)-amine], the inhibition at 10 µM at KDR (VEGFR2) (setting [1]) was less than 40%; at KDR (VEGFR2) (setting [2]) it was 2%; at FGFR2 (setting [3]), less than 40%; at FGFR2 (setting [4]), 12%; at FLT4 (VEGFR3) (setting [5]) it was less than 40%; on FLT4 (VEGFR3) (setting [6]) it was 21%. The figures for the inhibition at 10 µM on LYN B (setting [7]) and at LYN B (setting [8]) were less than 40% and 17%, respectively. Besides, the “No. of kinases with <40% inhibition” value in the assay on panel of 15 kinases was 15/15.
